This data set addresses T1, BRN2 (Homo sapiens, UniProt P20265).
T1 sequence (P20265 1-443): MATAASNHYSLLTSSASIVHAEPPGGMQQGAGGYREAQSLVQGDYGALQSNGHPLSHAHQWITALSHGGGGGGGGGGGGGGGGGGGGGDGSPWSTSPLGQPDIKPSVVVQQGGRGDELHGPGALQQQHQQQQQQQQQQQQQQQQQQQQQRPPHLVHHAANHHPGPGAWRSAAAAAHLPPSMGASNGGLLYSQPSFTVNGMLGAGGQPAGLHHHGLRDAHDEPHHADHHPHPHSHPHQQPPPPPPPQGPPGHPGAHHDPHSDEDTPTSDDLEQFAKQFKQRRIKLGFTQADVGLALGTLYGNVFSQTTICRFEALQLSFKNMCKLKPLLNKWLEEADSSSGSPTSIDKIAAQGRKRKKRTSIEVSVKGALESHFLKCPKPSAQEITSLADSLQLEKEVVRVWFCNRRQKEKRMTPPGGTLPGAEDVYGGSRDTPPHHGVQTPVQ
Nature of the data set: cell-based. The conditions noted are these: for % BRN2 Inhibition (10 μM): 10 μM compound; for % BRN2 Inhibition (10 μM) / % BRN2 Inhibition (30 μM): 24 hours, 42D^ENZR cells stably expressing BRN2-luciferase reporter; for % BRN2 Inhibition (10 μM) / % BRN2 Inhibition (30 μM) / inhibition at 10 µM / inhibition at 30 µM: negative = activation; for % BRN2 Inhibition (30 μM): 30 μM compound; for inhibition at 10 µM: read-out: % BRN2 Inhibition (10 μM), 10 μM compound, 24 hours, 42D^ENZR cells stably expressing BRN2-luciferase reporter; for inhibition at 30 µM: read-out: % BRN2 Inhibition (30 μM), 30 μM compound, 24 hours, 42D^ENZR cells stably expressing BRN2-luciferase reporter; for cell death (30 μM): cell death = severe toxicity at a low dose. An excerpt:
Decreased expression of luciferase protein is validated via western blot to confirm downregulation and avoid false positive molecules that inhibit luciferase protein activity and not BRN2-drive luciferase expression. Molecules are prioritized by their inhibition potency to measure direct interaction with BRN2 in Step 2.
In TABLES 1 and 2, when a single value is mentioned in columns Met Stab % and T½, it refers to compound's stability in MLM and when two values are given they represent HLM/MLM. There is a distinction in TABLES 1 and 2 difference between “Active” and “Specific” or “Specificity”. Compounds are first tested to quantify inhibition of BRN2 transcriptional activity in a luciferase assay to determine “Activity” at […] and 30 μM concentrations. […] Where data is not available “na” is inserted. Where data has yet to be calculated the notation “nc” is used.
(In general: A reporter such as luciferase makes a cellular process visible.)

In the case of `CCn1c(-c2csc(-c3ccccn3)n2)nc2ccccc21` [VPC-18-15], the “% BRN2 Inhibition (10 μM)” value is listed as “insoluble” and the “% BRN2 Inhibition (30 μM)” value was “insoluble”.

Consider `Cn1c(-c2ccc(-c3ccccc3)o2)nc2ccc([N+](=O)[O-])cc21` [VPC-18-30, 1-Methyl-6-nitro-2-(5-phenylfuran-2-yl)-1H-benzo[d]imidazole], for which the inhibition (as a rule, the change of the read-out against control, counted positive when it falls) at 10 µM was determined as 2.63% and the inhibition at 30 µM came out at 17.4%.

Consider `Cn1c(-c2ccc(-c3ccc(Br)cc3Cl)o2)nc2ccc(C(F)(F)F)cc21` [VPC-18-34, 2-(5-(4-Bromo-2-chlorophenyl)furan-2-yl)-1-methyl-6-(trifluoromethyl)-1H-benzo[d]imidazole], for which the inhibition at 10 µM is -0.86% and the inhibition at 30 µM was determined as 46.7%.

`Cn1c(-c2csc(-c3ccccc3)n2)nc2ccc(Cl)cc21` [VPC-18-37, 4-(6-Chloro-1-methyl-1H-benzo[d]imidazol-2-yl)-2-phenylthiazole]: the inhibition at 10 µM is -14.5% and the inhibition at 30 µM was -58.7%.

In the case of `c1ccc2oc(-c3csc(N4CC5CC4CO5)n3)cc2c1` (stereo not shown) [VPC-18-38, 5-(4-(Benzofuran-2-yl)thiazol-2-yl)-2-oxa-5-azabicyclo[2.2.1]heptane], the inhibition at 10 µM was -51.2% and the inhibition at 30 µM was 67%.

With `Cn1c(-c2ccc(-c3ccc(F)cc3F)o2)nc2ccc([N+](=O)[O-])cc21` [VPC-18-39, 2-(5-(2,4-Difluorophenyl)furan-2-yl)-1-methyl-6-nitro-1H-benzo[d]imidazole], the inhibition at 10 µM is -150% and the inhibition at 30 µM was -63.1%.

For `O=[N+]([O-])c1ccc2nc(-c3ccc(-c4ccc(Br)cc4Cl)o3)[nH]c2c1` [VPC-18-40, 2-(5-(4-Bromo-2-chlorophenyl)furan-2-yl)-6-nitro-1H-benzo[d]imidazole], the inhibition at 10 µM was -32.7% and the inhibition at 30 µM was -84.1%.

In the case of `Cn1c(-c2ccc(-c3cncnc3)o2)nc2ccccc21` [VPC-18-43, 1-Methyl-2-(5-(pyrimidin-5-yl)furan-2-yl)-1H-benzo[d]imidazole], the inhibition at 10 µM was -124% and the inhibition at 30 µM is -83%.

In the case of `O=[N+]([O-])c1ccc(-c2nc(-c3cc4ccccc4o3)cs2)cc1` [VPC-18-44, 4-(Benzofuran-2-yl)-2-(4-nitrophenyl)thiazole], the inhibition at 10 µM was -45% and the inhibition at 30 µM was -104%.

For the compound `NS(=O)(=O)c1ccc2nc(-c3csc(-c4ccccc4F)n3)[nH]c2c1` [VPC-18-46, 2-(2-(2-Fluorophenyl)thiazol-4-yl)-1H-benzo[d]imidazole-6-sulfonamide], the inhibition at 10 µM is -69.6% and the inhibition at 30 µM was -158%.

With `O=[N+]([O-])c1ccc(-c2nc(-c3cc4ccccc4o3)cs2)o1` [VPC-18-49, 4-(Benzofuran-2-yl)-2-(5-nitrofuran-2-yl)thiazole], the inhibition at 10 µM was -48% and the inhibition at 30 µM is -21%.

Take `Cn1c(-c2ccc(N3CC4CC3CO4)o2)nc2ccccc21` (stereo not shown) [VPC-18-50, 5-(5-(1-Methyl-1H-benzo[d]imidazol-2-yl)furan-2-yl)-2-oxa-5-azabicyclo[2.2.1]heptane]: the inhibition at 10 µM was -26.6% and the inhibition at 30 µM was 27.5%.

Turning to `O=[N+]([O-])c1ccc2cc(-c3csc(-c4ccco4)n3)oc2c1` [VPC-18-52, 2-(Furan-2-yl)-4-(6-nitrobenzofuran-2-yl)thiazole], the inhibition at 10 µM was -15.8% and the inhibition at 30 µM is -46%.

With `O=[N+]([O-])c1ccc(-c2nc(-c3cc4ccc(F)cc4o3)cs2)o1` [VPC-18-54, 4-(6-Fluorobenzofuran-2-yl)-2-(5-nitrofuran-2-yl)thiazole], the inhibition at 10 µM was -60% and the inhibition at 30 µM was -45%.

For the compound `O=[N+]([O-])c1ccc2cc(-c3csc(-c4ccc(F)cc4F)n3)oc2c1` [VPC-18-55, 2-(2,4-Difluorophenyl)-4-(6-nitrobenzofuran-2-yl)thiazole], the inhibition at 10 µM was -9.94% and the inhibition at 30 µM was -54%.

Take `Cn1c(-c2csc(-c3ccc(Br)cc3F)n2)nc2ccc(F)cc21` [VPC-18-56, 2-(4-Bromo-2-fluorophenyl)-4-(6-fluoro-1-methyl-1H-benzo[d]imidazol-2-yl)thiazole]: the “% BRN2 Inhibition (10 μM)” value is “INACTIVE” and the “% BRN2 Inhibition (30 μM)” value is given as “INACTIVE”.

Take `Cc1c(-c2csc(-c3ccc(Br)cc3F)n2)oc2cc(F)ccc12` [VPC-18-57, 2-(4-Bromo-2-fluorophenyl)-4-(6-fluoro-3-methylbenzofuran-2-yl)thiazole]: the “% BRN2 Inhibition (10 μM)” value was “INACTIVE” and the “% BRN2 Inhibition (30 μM)” value is listed as “INACTIVE”.

As for `Cn1c(-c2ccc(C3CCCO3)o2)nc2ccccc21` (stereo not shown) [VPC-18-58, 1-Methyl-2-(5-(tetrahydrofuran-2-yl)furan-2-yl)-1H-benzo[d]imidazole], the “% BRN2 Inhibition (10 μM)” value is given as “INACTIVE” and the “% BRN2 Inhibition (30 μM)” value is “INACTIVE”.

Take `Clc1cc(Br)ccc1-c1nc(-c2cc3ccccc3o2)cs1` [VPC-18-59, 4-(Benzofuran-2-yl)-2-(4-bromo-2-chlorophenyl)thiazole]: the “% BRN2 Inhibition (10 μM)” value is reported as “INACTIVE” and the “% BRN2 Inhibition (30 μM)” value is listed as “INACTIVE”.

For `Cn1c(-c2ccc(-c3ccc(Br)cc3Cl)o2)nc2ccccc21` [VPC-18-60], the inhibition at 10 µM amounted to 13% and the inhibition at 30 µM is -37%.

Take `Cn1c(-c2ccc(-c3ccccc3)o2)nc2ccc(C(F)(F)F)cc21` [VPC-18-61]: the inhibition at 10 µM is -97% and the inhibition at 30 µM is -92%.

Take `Cn1c(-c2ccc(-c3ccc(C#N)cc3)o2)nc2ccccc21` [VPC-18-62]: the inhibition at 10 µM is -62% and the inhibition at 30 µM was -110%.

Regarding `Cn1c(-c2ccc(-c3cccnc3)o2)nc2ccc(C(F)(F)F)cc21` [VPC-18-64], the inhibition at 10 µM is -30% and the inhibition at 30 µM is -59%.

For `Cn1c(-c2ccc(-c3ccccc3F)o2)nc2ccc(C(F)(F)F)cc21` [VPC-18-65], the inhibition at 10 µM was -52% and the inhibition at 30 µM is -3%.

Take `Cn1c(-c2ccc(C3=CCNCC3)o2)nc2ccccc21` [VPC-18-67]: the inhibition at 10 µM is -38% and the inhibition at 30 µM came out at 8%.

`CN1CCC(c2ccc(-c3nc4ccccc4n3C)o2)CC1` [VPC-18-68]: the inhibition at 10 µM was 11% and the inhibition at 30 µM is 14%.

Take `Cn1c(-c2ccc(-c3ccc(F)cc3F)o2)nc2ccc(C(F)(F)F)cc21` [VPC-18-69]: the inhibition at 10 µM is -8% and the inhibition at 30 µM was determined as 12%.

`Cl.Cn1c(-c2ccc(C3=CCNCC3)o2)nc2ccc(C(F)(F)F)cc21` [VPC-18-70, 1-methyl-2-(5-(1,2,3,6-tetrahydropyridin-4-yl)furan-2-yl)-6-(trifluoromethyl)-1H-benzo[d]imidazole hydrochloride]: the “cell death (30 μM)” value is “cell death”, the inhibition at 10 µM came out at 74% and the inhibition at 30 µM stood at 100%.

As to `Cn1c(-c2ccc(N3CCC(F)(F)CC3)o2)nc2ccc(C(F)(F)F)cc21` [VPC-18-79], the inhibition at 10 µM is -12.3% and the inhibition at 30 µM came out at 2.4%.

For `NC(=O)c1ccc2cc(-c3csc(-c4ccco4)n3)oc2c1` [VPC-18-83], the inhibition at 10 µM was -40% and the inhibition at 30 µM was -10%.

On to `Cl.Clc1ccc2cc(-c3csc(C4=CCNCC4)n3)oc2c1` [VPC-18-95, 4-(6-chlorobenzofuran-2-yl)-2-(1,2,3,6-tetrahydropyridin-4-yl)thiazole hydrochloride], for which the “cell death (30 μM)” value is reported as “cell death”, the inhibition at 10 µM is 79.8% and the inhibition at 30 µM was found to be 100%.

Turning to `Clc1ccc2cc(-c3csc(C4=CCNCC4)n3)oc2c1` [VPC-18-97, 4-(6-chlorobenzofuran-2-yl)-2-(1,2,3,6-tetrahydropyridin-4-yl)thiazole], the “% BRN2 Inhibition (10 μM)” value is listed as 65% and the “% BRN2 Inhibition (30 μM)” value stood at 99.95%.

Take `FC(F)(F)c1cccc2oc(-c3csc(-c4ccco4)n3)cc12` [VPC-18-101]: the inhibition at 10 µM is -81% and the inhibition at 30 µM was -43%.

In the case of `O=C(NC1(c2ccco2)CC1)c1cc2ccc(C(F)(F)F)cc2o1` [VPC-18-119], the inhibition at 10 µM was 69.9% and the inhibition at 30 µM is -25%.

The values above are taken from patent US20220106304A1, “Transcription Factor BRN2 Inhibitory Compounds as Therapeutics and Methods for Their Use” (The University of British Columbia, priority 2018, published 2022).
